Data on one molecule can be found in patent publication US10101331B2, “Methods of evaluating patients using E-cadherin or vimentin” (AGIOS PHARMACEUTICALS, INC, priority 2012, dated 2018).

Entries after “also recorded” stand apart in the source; their conditions may differ.

Holding throughout (assay type): cell-based
For assay [1], the system named is A427 cells. Nature of the assay: 72 hr proliferation assay in lines stably expressing empty vector, GAC or GAC-BR. The procedure: (§1) A427 parent cells or lines stably expressing pLVX empty vector control (Con), wild-type GAC (GAC), or a BPTES-resistant GAC enzyme (GAC-BR) were treated with indicated concentrations of drugs in a 72 hr proliferation assay. […] Calculated p-values from student t-test, * (3×10^−8), **(10^−9), ^#(10^−7), ^##(2×10^−6).
Levels of overexpression of the GAC WT and GAC-BR mutant were approximately 1.5-2.0 fold above endogenous GLS1 levels (FIG. 12).

The next assay deals with NCI-H1395. In words: Lung cancer cell line panel screened for sensitivity to BPTES, 72 hr proliferation assay. From the text: (§2) Of these, 44 of the cell lines have been classified as non-small cell lung cancer (NSCLC). […] Four of the top 25 transcriptional/cellular pathways were related to the epithelial-mesenchymal transition (EMT) (ranks 1, 15, 23, 25 of FIG. 2). […] Low E-cadherin/high vimentin are well-defined markers of cells that have a mesenchymal phenotype as characterized for example, in any one of the following references: (Yauch et al., (2005) Cin Cancer Res 11:24; Savagner et al., (2010) Ann Oncol. 21(suppl 7): vii89; Thiery et al., (2002) Nature Reviews Cancer June vol 2:442).

The test system of the next assay is NCI-H1048. The assay is described as above.
Text: as §2

Assay [2] concerns panel of 62 lung cancer cell lines. Nature of the assay: Lung cancer cell line panel screened for sensitivity to BPTES, whole panel.
Text: as §2

The test system of assay [3] is A427 cells. In words: 13C(5)-Gln labeling of glutamate and aspartate, LC/MS. Particulars: 1 hr drug pre-treatment, 2 hr 13C(5)-Gln labeling. The procedure: as §1
Several groups have shown that GLS inhibition leads to a decrease in cellular tricarboxylic acid cycle (TCA) intermediates downstream of GLS activity (P. Gao et al. Nature 458, 762 (2009); T. Cheng et al. Proceedings of the National Academy of Sciences 108, 8674 (2011)). Measurement of glutamate (the product of the glutaminase reaction) and aspartate (which derives both carbon and nitrogen from glutamate) are particularly sensitive readouts of glutaminase activity (FIG. 13). ^13C labeled carbon in cells pre-treated with drug was tracked for 1 hr, followed by a 2 hr ^13C(5)-Gln labeling period, via LC/MS.

The test system of a further assay is HCT116. In words: 72 hr proliferation assay using CellTiter-Glo in 96-well format. To be noted: 72 hr treatment. From the text:
(§3) FIGS. 8A-8C depict the GLS1 dependence in selected cancer cell lines. FIG. 8A depicts a western blot analysis of GLS1 and GLS2 protein levels in indicated cell lines. KGA and GAC alternative splice variants are indicated.
(§4) Proc of the National Academy of Sciences 109, 1092 (2012); McBryant Supra; DeLaBarre, Supra). […] This loop differs in primary sequence between GLS1 and GLS2, thereby explaining the differential response of the two isoforms.
(In ATP-based viability assays light output follows the ATP content of the culture.)

The subject of the next assay is HUH7. The description is as above. To be noted: 72 hr treatment.
Text: as §3, §4

A further assay has as its system MDA-MB-231. The description is as above. Particulars: 72 hr treatment.
Text: as §3, §4

Another assay concerns SKBR3. The assay is described as above. To be noted: 72 hr treatment.
Text: as §3, §4

Another assay concerns HepG2. The assay is described as above. Particulars: 72 hr treatment.
Text: as §3, §4

The next assay relates to PC3. The description is as above. Particulars: 72 hr treatment.
Text: as §3, §4

The test system of another assay is CAKI-1. The assay is described as above. To be noted: 72 hr treatment.
Text: as §3, §4

In a further assay the test system is A427. The assay is described as above. Particulars: 72 hr treatment.
Text: as §3, §4

Regarding `O=C(Cc1ccccc1)Nc1nnc(CCSCCc2nnc(NC(=O)Cc3ccccc3)s2)s1` [BPTES], the results for the “sensitivity to BPTES” value with A427 cells [1] (A427 cells expressing empty vector or GAC-WT) and with A427 cells [1] (A427 cells with stable overexpression of the GAC-BR mutant) were “retained significant sensitivity” and “rendered resistant”, respectively. In addition, the “Max Inh @ 10 uM (%)” value in the assay with NCI-H1395 (NCI-H1395, 10 uM) was determined as 16%. For the same molecule, the “Mu/max @10 uM” value in the assay with NCI-H1395 (NCI-H1395, 10 uM) turned out to be 0.61. In addition, in the assay on NCI-H1395 (NCI-H1395, 10 uM), the “μ/μmax @10 uM” value amounted to 0.61. For the same molecule, the μ/μmax was determined as 0.61 in the assay on NCI-H1395 (NCI-H1395 cell line) and 0.94 in the assay with NCI-H1048. Moreover, in [2], the “share of the 62 lines with significant sensitivity to BPTES (μ/μmax<0.6)” value is “Approximately 30%”. The “13C label accumulation in glutamate and aspartate” value in the assay on A427 cells [3] is “decreased label accumulation”. Moreover, the “response to the compound” value with HCT116, in the assay with HUH7 and in the assay on PC3 was “minimal response” throughout. Further, the “sensitivity to BPTES treatment” value in the assay with MDA-MB-231, with HepG2 and in the assay with CAKI-1 was “modest sensitivity” throughout. The “response to BPTES treatment” value with SKBR3 is “minimum effect; also recorded: minimal response”; in the assay on A427, “Maximum response”.
